This series is described as follows: Drug interaction studies: co-administered drug in the presence of elagolix. The settings on record: for direction of the change in AUC of concomitant drug: co-administered with ORILISSA (elagolix).
The mark [1] stands for this setting: Ethinyl estradiol 35 mcg and triphasic norgestimate 0.18/0.215/0.25 mg once daily, elagolix 150 mg once daily, N 21.
The mark [2] stands for this setting: Digoxin 0.5 mg single dose, elagolix 200 mg twice daily × 10 days, N 11.
Where [3] appears, read: Midazolam 2 mg single dose, elagolix 150 mg once daily × 13 days, N 11.
The mark [4] stands for this setting: Midazolam 2 mg single dose, elagolix 300 mg twice daily × 11 days, N 20.
Where [5] appears, read: Norethindrone 0.35 mg once daily × 112 days, elagolix 150 mg once daily × 56 days, N 32.
The mark [6] stands for this setting: Rosuvastatin 20 mg once daily, elagolix 300 mg twice daily × 7 days, N 10.

Method: Drug interaction studies were performed with elagolix and other drugs that are likely to be co-administered and with drugs commonly used as probes for pharmacokinetic interactions.

Turning to `C#C[C@]1(O)CC[C@H]2[C@@H]3CCC4=CC(=NO)CC[C@@H]4[C@H]3CC[C@@]21CC` (mixture of isomers) [Norelgestromin], under setting [1], the “AUC Ratio (with elagolix vs medication alone)” value (“AUC Ratio” below) is 0.85 and the “Cmax Ratio (with elagolix vs medication alone)” value (“Cmax Ratio” for short) is on record as 0.87.
On the same counts, the results for `C#CC1(O)CC[C@H]2[C@@H]3CCC4=CC(=O)CC[C@@H]4[C@H]3CC[C@@]21CC` (mixture of isomers) [Norgestrel] are 0.92 and 0.89.
As to `C[C@H]1O[C@@H](O[C@H]2[C@@H](O)C[C@H](O[C@H]3[C@@H](O)C[C@H](O[C@H]4CC[C@@]5(C)[C@H](CC[C@@H]6[C@@H]5C[C@@H](O)[C@]5(C)[C@@H](C7=CC(=O)OC7)CC[C@]65O)C4)O[C@@H]3C)O[C@@H]2C)C[C@H](O)[C@@H]1O` [Digoxin], the “direction of the change in AUC of concomitant drug” value (shortened to “direction of the change”) is on record as “↑ digoxin”. Under setting [2], the “AUC Ratio” value was determined as 1.26 and the “Cmax Ratio” value stood at 1.71.
Take `C#C[C@]1(O)CC[C@H]2[C@@H]3CCc4cc(O)ccc4[C@H]3CC[C@@]21C` [Ethinyl Estradiol]: under setting [1], the “AUC Ratio” value is recorded as 1.30 and the “Cmax Ratio” value is reported as 1.15.
On to `Cc1ncc2n1-c1ccc(Cl)cc1C(c1ccccc1F)=NC2` [Midazolam], for which the “direction of the change” value is given as “↓ midazolam”. Moreover, under setting [3], the “AUC Ratio” value was found to be 0.65 and the “Cmax Ratio” value was determined as 0.81. Under setting [4], the “AUC Ratio” value came out at 0.46 and the “Cmax Ratio” value is listed as 0.56.
As to `C#C[C@]1(O)CC[C@H]2[C@@H]3CCC4=CC(=O)CC[C@@H]4[C@H]3CC[C@@]21C` [Norethindrone], under setting [5], the “AUC Ratio” value is reported as 0.88 and the “Cmax Ratio” value is reported as 0.95.
As to `CC(C)c1nc(N(C)S(C)(=O)=O)nc(-c2ccc(F)cc2)c1/C=C/[C@@H](O)C[C@@H](O)CC(=O)O` [Rosuvastatin], the “direction of the change” value was “↓ rosuvastatin”. Under setting [6], the “AUC Ratio” value is listed as 0.60 and the “Cmax Ratio” value amounted to 0.99.

The values above are taken from patent publication US12102637B2, “Pharmaceutical formulations for treating endometriosis, uterine fibroids, polycystic ovary syndrome or adenomyosis” (AbbVie Inc., priority 2017, dated 2024).
